In publication PMC12203525, “The insight into the biology of five homologous lectins produced by the entomopathogenic bacterium and nematode symbiont Photorhabdus laumondii” (Glycobiology, 2025):

Experiments:
PLL2 = molecular target: PLL2; set-up: method as in Faltinek et al. 2019; Fujdiarová et al. 2021; conditions: PLL2 binding to the immobilized sugar, SPR; ref Faltinek et al. 2019; Fujdiarová et al. 2021; read-out: KD(app); cited from earlier work
PLL3 = molecular target: PLL3; set-up: method as in Faltinek et al. 2019; Fujdiarová et al. 2021; conditions: PLL3 binding to the immobilized sugar, SPR; ref Faltinek et al. 2019; Fujdiarová et al. 2021; read-out: KD(app); cited from earlier work
PLL = PLL (Photorhabdus laumondii subsp. laumondii, UniProt Q7N8J0); assay: SPR, apparent KD on immobilized sugar; set-up: species or system Photorhabdus laumondii subsp. laumondii TT01; conditions: PLL binding to the immobilized sugar, 25 °C, read-out: KD(app)
Description: (§1) SPR experiments were carried out on BIAcore T200 or BIAcore S200 instruments (GE Healthcare, UK). Sugar moieties were immobilized on the chip surface using the standard procedures according to the manufacturer’s instructions. Measurements with immobilized MGMR were performed on the chip prepared previously (high-density chip) ([Fujdiarová et al. 2021]). Measurements with immobilized α-L-fucose were performed on the streptavidin chip (GE Healthcare, UK). Biotinylated α-L-fucose was immobilized on channel 2 to yield a final response of 29 RU, unmodified channel 1 was used as a control.
(§2) Measurements were performed in Tris buffer with the addition of 0.05% Tween 20 at a flow rate of 30 μl/min at 25 °C. […] 50 mM NaOH for 30 s (flow 30 μl/min) was used for chip regeneration. To determine KDs (app) towards MGMR, 2-fold dilution series of lectins was used (PLL: 0.048 – 50 μM, PLL4: 0.008 - 2 μM; PLL5: 1.9 – 500 nM). The data were evaluated with the BIAcore T200 or BIAcore S200 evaluation software using a steady state approach. To determine KD(app) towards α-L-fucose, 2-fold dilution series of lectins was used (PLL: 1.25 – 20 μM, PLL4: 0.39 – 12.5 μM; PLL5: 0.12 – 30 μM). The data were evaluated with the BIAcore T200 or BIAcore S200 evaluation software using a steady state approach (PLL5) or a single-cycle kinetics approach (PLL, PLL4). For SPR inhibition experiments on the MGMR channel, 250 nM PLL, 250 nM PLL4 or 62 nM PLL5, respectively, was used. Proteins of the given concentration were mixed with a concentration series of tested inhibitors (0.01 - 0.4 M). Proteins without an inhibitor were used as a control. The response of the lectin bound to the sugar surface at equilibrium was plotted against the concentration of inhibitor in order to determine IC50. The response in the appropriate blank channel was subtracted prior to all evaluations.

PLL4 [1] = molecular target: T1, PLL4 (Photorhabdus laumondii subsp. laumondii, UniProt Q7N8I6); assay: SPR, apparent KD on immobilized sugar; set-up: species or system Photorhabdus laumondii subsp. laumondii TT01; conditions: PLL4 binding to the immobilized sugar, 25 °C, read-out: KD(app)
Description: as §1, §2

PLL5 = PLL5 (Photorhabdus laumondii subsp. laumondii, UniProt Q7N8I5); assay: SPR, apparent KD on immobilized sugar; set-up: species or system Photorhabdus laumondii subsp. laumondii TT01; conditions: PLL5 binding to the immobilized sugar, 25 °C, read-out: KD(app)
Description: as §1, §2

PLL4 [2] = molecular target: T1, PLL4; assay: Glycan microarray screening (634 saccharide ligands); format: binding, Photorhabdus laumondii subsp. laumondii TT01; conditions: DyLight488-labelled PLL4, 200 μg/mL
Description: Lectins were fluorescently labelled with DyLight 488 according to the manufacturer’s instructions and the unbound dye was extensively dialyzed out of the protein solution. The microarray chip (Semiotik LLC, Moscow, Russia, batch OSPS280715) containing 634 saccharide ligands, each in 6 replicates, was treated with PBS (137 mM NaCl, 2.7 mM KCl, 8 mM Na2HPO4, […], pH 7.4) with added 0.1% Tween-20 for 15 min. The labelled proteins (200 μg/mL) were then separately applied to the chip surface and incubated in a humidity chamber at 37 °C for 1 h. After the incubation, the unbound protein was washed out with PBS containing 0.05% Tween-20 and deionized water. The chip was dried by airflow and scanned using an InnoScan1100 AL (Innopsys, Carbonne, France) with a 488 nm laser. The data were analyzed with the software Mapix 8.2.2 and an online glycan chip converter (Semiotic, https://rakitko.shinyapps.io/semiotik).

T1 sequence (Q7N8I6 entry or part of it): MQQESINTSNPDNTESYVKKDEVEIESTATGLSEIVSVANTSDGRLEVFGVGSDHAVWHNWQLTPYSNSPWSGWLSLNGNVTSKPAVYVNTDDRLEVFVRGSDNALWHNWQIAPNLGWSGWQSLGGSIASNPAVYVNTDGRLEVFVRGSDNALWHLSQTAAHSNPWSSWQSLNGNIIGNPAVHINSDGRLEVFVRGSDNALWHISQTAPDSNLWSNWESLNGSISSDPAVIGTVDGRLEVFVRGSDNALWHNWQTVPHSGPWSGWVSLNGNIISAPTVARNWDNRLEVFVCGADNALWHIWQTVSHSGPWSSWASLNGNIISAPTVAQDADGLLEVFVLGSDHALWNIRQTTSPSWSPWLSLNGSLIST
PLL5, sequence (Q7N8I5 entry or part of it): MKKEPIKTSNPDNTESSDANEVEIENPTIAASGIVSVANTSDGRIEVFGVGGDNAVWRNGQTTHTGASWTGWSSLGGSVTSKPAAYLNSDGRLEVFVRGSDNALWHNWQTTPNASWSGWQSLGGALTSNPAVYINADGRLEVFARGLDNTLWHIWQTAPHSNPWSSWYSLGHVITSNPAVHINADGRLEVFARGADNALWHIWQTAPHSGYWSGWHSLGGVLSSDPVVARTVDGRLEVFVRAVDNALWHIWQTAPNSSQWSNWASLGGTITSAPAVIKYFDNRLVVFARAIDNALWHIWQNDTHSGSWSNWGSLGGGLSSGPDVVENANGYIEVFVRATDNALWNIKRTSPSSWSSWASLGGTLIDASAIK
PLL, sequence (Q7N8J0 entry or part of it): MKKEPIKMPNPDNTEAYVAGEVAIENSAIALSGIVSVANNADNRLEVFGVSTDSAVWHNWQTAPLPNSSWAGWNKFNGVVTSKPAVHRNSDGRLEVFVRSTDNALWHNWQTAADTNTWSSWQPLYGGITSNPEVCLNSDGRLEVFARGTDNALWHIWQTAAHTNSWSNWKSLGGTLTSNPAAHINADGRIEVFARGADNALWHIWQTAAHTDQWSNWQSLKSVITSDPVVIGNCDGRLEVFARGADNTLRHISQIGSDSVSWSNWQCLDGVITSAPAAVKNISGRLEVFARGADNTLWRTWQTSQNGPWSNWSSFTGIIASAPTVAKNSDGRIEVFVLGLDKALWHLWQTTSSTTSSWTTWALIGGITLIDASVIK

Molecule	Kd (PLL2) [µM]	Kd (PLL3) [µM]	Kd (PLL) [µM]	Kd (PLL4 [1]) [µM]	Kd (PLL5) [µM]	glycan array binding (in words) (PLL4 [2])
COC[C@H]1O[C@@H](O[C@@H]2[C@@H](OC)[C@@H](OC)[C@H](O)O[C@H]2C)[C@H](O)[C@@H](OC)[C@@H]1O [MGMR, 3,6-O-Me2-D-Glcβ1-4(2,3-O-Me2)-L-Rhaα]	0.0061 ± 0.0002	607 ± 46	44 ± 4.6	0.8 ± 0.06	0.3 ± 0.03	
α-L-fucoside	117 ± 4.8	322 ± 86	8.5 ± 0.2	4.3 ± 0.1	64 ± 8.6	recognized
